According to patent publication US8617872B2, “Compositions for culturing spirochetes” (priority 2000, dated 2013):

Assays:
Type in all cases: cell-based
Leptospira [1] = experiment: Antibiotic susceptibility test (MICROSCAN or disc diffusion) of patient samples positive for Leptospira; conditions: total isolates 276
Description: (§1) This example describes the preparation of a pellet used for antimicrobial susceptibility testing of a culture sample. The procedure begins with a culture (e.g., prepared in the manner described in Example 2), where serum from a patient is inoculated in GSI-1 media and allowed to grow. In order to form pellet, an aliquot of this culture sample is placed in a microcentrifuge tube along with 10% SDS solution, and centrifuged at 14,000 g to disrupt the spirochetes and maximize the number of available eptiopic sites. The disrupted spirochetes were then cultured in an alternative growth medium made up of one part GSI-1 medium, one part 6.5% lactalbumin hydrolysate, one part 2% brain heart infusion, one part 10% pluronic fluid, and one part of the isolated (disrupted) spirochetes. This inoculated alternative growth medium was then allowed to incubate in the closed micro centrifuge tube until a distinctive pellet was observed (typically 7-14 days).
(§2) Following the observation of pellet formation, the tube was vortexed and incubated at 35° C. until a MacFarlane standard of between 8 to 12% turbidity was achieved. MICROSCAN antibiotic susceptibility microtiter plates were then inoculated with (e.g., 110 μl of) inoculum and allowed to incubate at 35° C. for 16-20 hours. The microtiter plates were then scanned for growth and respective sensitivity reaction (both the control well and the growth well). Table 2 below lists the various antimicrobials tested with this sample and whether growth of the organism was inhibited (susceptible) or whether the growth of the organism was not inhibited (resistant).
(§3) This Example describes the results for susceptibility tests that were performed on a large number of patient samples positive for either Borrelia or Leptospira. […] The results presented in Table 3 reveal the varied response of different types of spirochetes to different antibiotics.

Y. entero gp. = experiment: Antibiotic susceptibility test (MICROSCAN or disc diffusion), control organism Y. entero gp.; conditions: total isolates 1
Tatumella = experiment: Antibiotic susceptibility test (MICROSCAN or disc diffusion), control organism Tatumella; conditions: total isolates 2
Description: as §1, §2, §3

E. coli = experiment: Antibiotic susceptibility test (MICROSCAN or disc diffusion), control organism E. coli; conditions: total isolates 1
Leptospira [2] = experiment: Susceptibility testing of Leptospira isolated from a patient with symptoms of multiple sclerosis; conditions: for Antibiotic Susceptibility Results, SERUM: Leptospira culture from serum of multiple sclerosis patient; for Antibiotic Susceptibility Results, URINE: Leptospira culture from urine of multiple sclerosis patient
Method: This example describes the preparation of a pellet used for antimicrobial susceptibility testing of a culture sample. […] In order to form pellet, an aliquot of this culture sample is placed in a microcentrifuge tube along with 10% SDS solution, and centrifuged at 14,000 g to disrupt the spirochetes and maximize the number of available eptiopic sites. […] This inoculated alternative growth medium was then allowed to incubate in the closed micro centrifuge tube until a distinctive pellet was observed (typically 7-14 days).
MICROSCAN antibiotic susceptibility microtiter plates were then inoculated with (e.g., 110 μl of) inoculum and allowed to incubate at 35° C. for 16-20 hours. The microtiter plates were then scanned for growth and respective sensitivity reaction (both the control well and the growth well).

Treponema isolate = experiment: Antimicrobial susceptibility test (MICROSCAN plates) of a patient's Treponema isolate; conditions: Treponema infected patient's isolate; MICROSCAN plates, 35° C., 16-20 hours
Method: For susceptibility testing, the organisms harvested could be assayed using any suitable susceptibility assay (See, Example 7). In some embodiments of the present invention, MICROSCAN antibiotic susceptibility plates were inoculated and incubated. Following incubations, plates were scanned for growth and respective sensitivity reaction. […] For the results to be considered reliable, the no growth of organisms was accepted in the negative control well, while the positive control well had to have sufficient growth to be read. In some embodiments of the present invention, to confirm the presence or absence of growing spirochetes in the growth well, aliquots from the growth well were reinoculated with fresh growth media and after an incubation time (e.g., 7-10 days) the presence of the organisms was confirmed (e.g., by phase contrast microscopy or direct fluorescent antibody staining).
as §1
This example describes an antimicrobial susceptibility test performed for a human patient. The patient had previously been testing using GSI-1 medium (e.g., as described in Example 2) for the presence of any spirochetes. […] This culture sample was then transferred to a microcentrifuge tube, and a pellet for antimicrobial susceptibility testing was prepared as described in Example 6.
as §2

Leptospira [3] = experiment: Susceptibility testing of Leptospira isolated from a patient with symptoms of rheumatoid arthritis; conditions: for Antibiotic Susceptibility Results, SERUM: Leptospira culture from serum of rheumatoid arthritis patient; for Antibiotic Susceptibility Results, URINE: Leptospira culture from urine of rheumatoid arthritis patient
Description: as §1
as §2, with “well).” for “well). Table 2 below lists the various antimicrobials tested with this sample and whether growth of the organism was inhibited (susceptible) or whether the growth of the organism was not inhibited (resistant).”
This Example describes the diagnosis and treatment of a human patient with symptoms of rheumatoid arthritis. In particular, serum and urine samples from this patient were initially cultured on GSI-1 (e.g., as described in Example 2), and screened for the presence of spirochetes (e.g., as described in Example 3). […] These cultures were then used to produce pellets for antimicrobial susceptibility testing (e.g., as described in Example 6). The antimicrobial susceptibility tests were then carried out on each sample (e.g., as described in Example 7) with the antimicrobials listed below in Table 5.

Borrelia = experiment: Antibiotic susceptibility test (MICROSCAN or disc diffusion) of patient samples positive for Borrelia; conditions: total isolates 519
Description: as §1, §2, §3

Pseudomonas = experiment: Antibiotic susceptibility test (MICROSCAN or disc diffusion), control organism Pseudomonas; conditions: total isolates 1
A. lwoffii = experiment: Antibiotic susceptibility test (MICROSCAN or disc diffusion), control organism A. lwoffii; conditions: total isolates 1

| Molecule | Antibiotic Susceptibility Results, SERUM (Leptospira [2]) | Antibiotic Susceptibility Results, URINE (Leptospira [2]) | RESULT (antibiotic susceptibility) (Treponema isolate) | Antibiotic Susceptibility Results, SERUM (Leptospira [3]) | Antibiotic Susceptibility Results, URINE (Leptospira [3]) | further results |
| --- | --- | --- | --- | --- | --- | --- |
| CC1(C)S[C@@H]2[C@H](NC(=O)[C@H](N)c3ccccc3)C(=O)N2[C@H]1C(=O)O [Ampicillin] | Resistant | Resistant | Susceptible | Resistant | Resistant | Antibiotic Susceptibility Test Results, Leptospira (Leptospira [1]): 54%; Antibiotic Susceptibility Test Results, Y. entero gp. (Y. entero gp.): 100%; Antibiotic Susceptibility Test Results, Tatumella (Tatumella): 100%; Antibiotic Susceptibility Test Results, E. coli (E. coli): 100%; Antibiotic Susceptibility Test Results, Borrelia (Borrelia): 61% |
| CC[C@H]1OC(=O)[C@H](C)[C@@H](O[C@H]2C[C@@](C)(OC)[C@@H](O)[C@H](C)O2)[C@H](C)[C@@H](O[C@@H]2O[C@H](C)C[C@H](N(C)C)[C@H]2O)[C@](C)(O)C[C@@H](C)CN(C)[C@H](C)[C@@H](O)[C@]1(C)O [Azithromycin] | Resistant | Resistant |  | Resistant | Resistant |  |
| Cc1nnc(SCC2=C(C(=O)O)N3C(=O)[C@@H](NC(=O)Cn4cnnn4)[C@H]3SC2)s1 [Cefazolin] |  |  | Resistant |  |  |  |
| CO/N=C(\C(=O)N[C@@H]1C(=O)N2C(C(=O)[O-])=C(C[N+]3(C)CCCC3)CS[C@H]12)c1csc(N)n1 [Cefepime] |  |  |  |  |  | Antibiotic Susceptibility Test Results, Leptospira (Leptospira [1]): 54%; Antibiotic Susceptibility Test Results, Y. entero gp. (Y. entero gp.): 100%; Antibiotic Susceptibility Test Results, Tatumella (Tatumella): 0%; Antibiotic Susceptibility Test Results, E. coli (E. coli): 100%; Antibiotic Susceptibility Test Results, Pseudomonas (Pseudomonas): 100%; Antibiotic Susceptibility Test Results, A. lwoffii (A. lwoffii): 100%; Antibiotic Susceptibility Test Results, Borrelia (Borrelia): 49% |
| CO/N=C(\C(=O)N[C@@H]1C(=O)N2C(C(=O)O)=C(COC(N)=O)CS[C@H]12)c1ccco1 [Cefuroxime] | Resistant | Resistant |  | Resistant | Resistant | Antibiotic Susceptibility Test Results, Leptospira (Leptospira [1]): 59%; Antibiotic Susceptibility Test Results, Y. entero gp. (Y. entero gp.): 100%; Antibiotic Susceptibility Test Results, Tatumella (Tatumella): 0%; Antibiotic Susceptibility Test Results, E. coli (E. coli): 100%; Antibiotic Susceptibility Test Results, Borrelia (Borrelia): 59% |
| CC(=O)OCC1=C(C(=O)O)N2C(=O)[C@@H](NC(=O)Cc3cccs3)[C@H]2SC1 [Cephalothin] |  |  | Susceptible |  |  |  |
| CC[C@H]1OC(=O)[C@H](C)[C@@H](O[C@H]2C[C@@](C)(OC)[C@@H](O)[C@H](C)O2)[C@H](C)[C@@H](O[C@@H]2O[C@H](C)C[C@H](N(C)C)[C@H]2O)[C@](C)(OC)C[C@@H](C)C(=O)[C@H](C)[C@@H](O)[C@]1(C)O [Clarithromycin] | Resistant | Resistant |  | Resistant | Resistant |  |
| CCC[C@@H]1C[C@@H](C(=O)N[C@@H]([C@H]2O[C@H](SC)[C@H](O)[C@@H](O)[C@H]2O)[C@H](C)Cl)N(C)C1 [Clindamycin] | Resistant | Resistant |  | Resistant | Resistant |  |
| CC[C@H]1OC(=O)[C@H](C)[C@@H](O[C@H]2C[C@@](C)(OC)[C@@H](O)[C@H](C)O2)[C@H](C)[C@@H](O[C@@H]2O[C@H](C)C[C@H](N(C)C)[C@H]2O)[C@](C)(O)C[C@@H](C)C(=O)[C@H](C)[C@@H](O)[C@]1(C)O [Erythromycin] | Resistant | Resistant |  | Resistant | Resistant |  |
| C[C@@H](O)[C@H]1C(=O)N2C(C(=O)O)=C(SCCN=CN)C[C@H]12 [Imipenem] | Resistant | Resistant |  |  |  | Antibiotic Susceptibility Test Results, Leptospira (Leptospira [1]): 77%; Antibiotic Susceptibility Test Results, Y. entero gp. (Y. entero gp.): 100%; Antibiotic Susceptibility Test Results, Tatumella (Tatumella): 100%; Antibiotic Susceptibility Test Results, E. coli (E. coli): 100%; Antibiotic Susceptibility Test Results, Pseudomonas (Pseudomonas): 100%; Antibiotic Susceptibility Test Results, A. lwoffii (A. lwoffii): 100%; Antibiotic Susceptibility Test Results, Borrelia (Borrelia): 84% |
| CC1(C)S[C@@H]2[C@H](NC(=O)[C@H](NC(=O)N3CCN(S(C)(=O)=O)C3=O)c3ccccc3)C(=O)N2[C@H]1C(=O)O [Mezlocillin] |  |  | Susceptible |  |  |  |
| CCN[C@@H]1C[C@H](N)[C@@H](O[C@H]2OC(CN)=CC[C@H]2N)[C@H](O)[C@H]1O[C@H]1OC[C@](C)(O)[C@H](NC)[C@H]1O [Netilmicin] |  |  | Resistant |  |  |  |
| CCn1cc(C(=O)O)c(=O)c2cc(F)c(N3CCNCC3)cc21 [Norfloxacin] |  | Susceptible |  |  | Susceptible |  |
| CO[C@H]1/C=C/O[C@@]2(C)Oc3c(C)c(O)c4c(O)c(c(/C=N/N5CCN(C)CC5)c(O)c4c3C2=O)NC(=O)/C(C)=C\C=C\[C@H](C)[C@H](O)[C@@H](C)[C@@H](O)[C@@H](C)[C@H](OC(C)=O)[C@@H]1C [Rifampin] | Resistant | Resistant |  | Resistant | Resistant |  |
| CN(C)[C@@H]1C(O)=C(C(N)=O)C(=O)[C@@]2(O)C(O)=C3C(=O)c4c(O)cccc4[C@@](C)(O)[C@H]3C[C@@H]12 [Tetracycline] | Resistant | Resistant | Resistant | Resistant | Resistant |  |
| CC1(C)S[C@@H]2[C@H](NC(=O)[C@H](C(=O)O)c3ccsc3)C(=O)N2[C@H]1C(=O)O [Ticarcillin] |  |  | Susceptible |  |  |  |
| Ampicillin/Sulbactam |  |  | Susceptible |  |  |  |
| Penicillin |  |  |  | Resistant | Resistant |  |
| Piperacillin/Tazobactam | Intermediate | Intermediate |  | Intermediate | Intermediate | Antibiotic Susceptibility Test Results, Leptospira (Leptospira [1]): 86%; Antibiotic Susceptibility Test Results, Y. entero gp. (Y. entero gp.): 100%; Antibiotic Susceptibility Test Results, Tatumella (Tatumella): 100%; Antibiotic Susceptibility Test Results, E. coli (E. coli): 100%; Antibiotic Susceptibility Test Results, Pseudomonas (Pseudomonas): 100%; Antibiotic Susceptibility Test Results, Borrelia (Borrelia): 88% |
| Trimethoprim Sulfate |  |  |  | Susceptible | Susceptible |  |
| Trimethoprim/Sulfamethoxazole | Susceptible | Susceptible | Resistant |  |  |  |
